Here are results for 5 compounds from PMC11943016, “TBG096 Ameliorates Memory Deficiency in AD Mouse Model via Promoting Neurogenesis and Regulation of Hsc70/HK2/PKM2/LAMP2A Signaling Pathway” (International Journal of Molecular Sciences, 2025).

Data set [1] concerns PC12 cells. Nature of the data set: NGF-mimic activity: neurite outgrowth in PC12 cells. The format is cell-based. The following applies: 0.3, 1, and 3 µM, 48 h. As to the method: The neurogenic activity of samples was evaluated according to the methods described in our previous study. Briefly, approximately 5 × 10^4 cells were seeded in each well of a 24-well microplate and were cultured under a humidified atmosphere with 5% CO2 at 37 °C for 24 h. Then, the medium in each well was replaced with 1 mL of serum-free DMEM containing 40 ng/mL NGF as a positive control, 0.5% DMSO as a negative control, and the test sample after 24 h, respectively. About 100–200 cells of each well were counted from a randomly selected area and repeated thrice after 48 h. A cell-bearing neurite outgrowth longer than the diameter of the cell body was identified as a positive cell. The activity was presented as the percentage of positive cells in the selected area.
(§1) In the inhibitor experiment of NGF-mimic activity, approximately 5 × 10^4 PC12 cells were seeded into each well of a 24-well plate and incubated for 24 h. After that, the medium in each well was replaced with 500 μL of serum-free DMEM or the serum-free DMEM containing VER155008, the inhibitor of Hsc70 protein, incubated in a CO2 incubator for 30 min. Subsequently, 500 μL of serum-free DMEM containing different samples was added and cultured, respectively. The PC12 cells with neurite outgrowth were recorded after 48 h. For the Western blot analysis, the experiment included five groups, namely the control (C) group, the NGF (40 ng/mL) group, the TBG096 (1 µM) group, the VER155008 (3 µM) group, and the VER155008 (3 µM) + TBG096 (1 µM) group. Afterwards, approximately 2 × 10^6 cells per dish were seeded into ten 6 cm Petri dishes with 5 mL of DMEM medium and incubated for 24 h. After giving different treatments with samples, the cells continued to culture for 4 h. Protein extraction was conducted to prepare for the subsequent Western blot analysis.

In data set [2] the test system is PC12 cells. Nature of the data set: MTT assay, cytotoxicity in PC12 cells. The data set is classed as cell-based. The note with it: 10 µM. On the procedure:
PC12 cells were firstly inoculated into a 24-well plate and cultured for 24 h. Following this, samples at different doses were added and cultured for 24 h. Subsequently, the 0.5 mL serum-free medium containing MTT (0.2 mg/mL) of each well was used to replace the original medium and incubated for 2 h. After removing the solution, the purple crystal was dissolved in 200 μL of DMSO, and the absorbance was measured at 570 nm. The cell survival rate for each group was calculated based on the control group.
In general terms: Tetrazolium dyes change colour on reduction, which living cells bring about.

Data set [3] relates to Hsc70, LAMP2A, APP, PKM2, and HK2 proteins. Nature of the data set: Western blot of CMA proteins in PC12 cells (inhibitor experiment). The format is cell-based. The note with it: TBG096 1 µM, VER155008 3 µM, 4 h, vs control. As to the method: as §1
Approximately 50 mg of cerebral cortex from brain tissues was homogenized in RIPA lysis buffer containing 1% protease inhibitor and 1% phosphatase inhibitor. Then, the sample was centrifuged at 12,000 rpm at 4 °C for 10 min, and the supernatant was transferred to a new tube. Protein concentrations were determined using the BCA kit, and 30 µg of protein from each sample was denatured by heating in water at 100 °C for 10 min. Subsequently, approximately 30 µg of protein from each sample was loaded into each well. After conducting gel electrophoresis at 80 V for 15 min and then at 120 V for 60 min, the proteins were transferred to the polyvinylidene fluoride (PVDF) membrane for 90 min. Then, the PVDF membrane was blocked with 5% skimmed milk at room temperature for 60 min. The membrane was incubated with a diluted primary antibody at 4 °C overnight. After washing the membrane three times with TBST buffer (1× TBS buffer containing 0.05% (v/v) tween 20), it was incubated with the secondary antibody for 1 h at room temperature. Finally, the strip was developed using chemiluminescence ECL reagent, and the blot density was quantified with ImageJ (National Institutes of Health, Bethesda, MD, USA).
In general terms: A western blot detects proteins with antibodies after separation by electrophoresis.

In data set [4] the test system is PC12 cells. Nature of the data set: EdU cell proliferation in PC12 cells (inhibitor experiment). The format is cell-based. The note with it: VER155008 3 µM, NH4Cl 250 µM. On the procedure: In the inhibitor experiment of EdU cell proliferation activity, PC12 cells were seeded into each well of a 24-well plate as above for 24 h. Then, the medium in each well was replaced with 500 μL of serum-free […] containing VER155008 (inhibitor of Hsc70, 3 µM), or NH4Cl (inhibitor of lysosome, 250 µM) for 30 min according to the literature, and 500 μL of serum-free DMEM containing different samples was added and cultured for 24 h, respectively. After that, PC12 cells were treated with EdU for 2 h according to the operation steps of the BeyoClick™ EdU-488 cell proliferation detection kit (#C0071S, Beyotime Biotechnology, Shanghai, China). After cell labeling, the supernatant was removed. Then, PC12 cells were fixed, washed, and blocked, and the click reaction solution was added at room temperature for 30 min. After that, DAPI staining was performed for 10 min. Finally, PC12 cells were detected by fluorescence microscope (Olympus IX53, Tokyo, Japan).

The conditions of data set [5]: cited from earlier work.
In data set [6] the test system is HFD-induced AD mice. In words: Behavioral tests (Y-maze, NOR, MWM) in HFD-induced AD mice. The data set is classed as in vivo. The text has this:
(§2) In experiments with the HFD-induced AD mouse model, a total of 60 Institute of Cancer Research (ICR) male mice aged 4 weeks from Zhejiang Academy of Medical Sciences (Hangzhou, China) were used for animal experiments (permit number: ZJU20230121). The animals were provided free access to a chow diet and water. […] The HFD and normal diet were alternated every two days to maintain freshness. Weekly measurements were taken for water intake, food intake, and body weight. In the eighteenth week, the mice underwent Y-maze and NOR tests. The Morris water maze test was conducted during the nineteenth week. After confirming the successful establishment of the AD model characterized by cognitive impairment, oral administration of treatments commenced. […] Each group had 10 mice.
The Y-maze test is used to evaluate working memory, and the process was referenced in another report. In brief, the Y-maze consists of three black plastic arms (A, B, and C) with the same length (30 cm), width (10 cm), height (15 cm), and 120° relative to adjacent arms. Each mouse is placed facing the wall of arm A and allowed to explore the maze freely for 5 min. The behavior of mice is recorded with a video recorder, and the data are stored in ANY-MAZE software version 6.35 (Stoelting, Chicago, IL, USA). The total number of entries made by the mice into each arm—considered as either whole or half-body entries—is recorded. An alternation is defined as a mouse moving through all three arms without returning to the initial arm on the third visit. Alternation: number of alternations/(number of arm entries − 2) × 100%.
The NOR test is utilized to assess the working memory capabilities of mice. The NOR apparatus consists of an open, black plastic box, two identical objects, and one novel object. The activity of the mice within the open field is captured and recorded using a video recorder, with data subsequently stored in ANY-MAZE software. The test is conducted over a span of two days, incorporating habituation, training, and testing stages. During the habituation phase, the mice are placed in the box devoid of any objects, allowing them to explore freely for a duration of five min. Following a 24 h interval, the NOR test is administered, which consists of both the training and testing phases. In the training phase, each mouse is positioned in the central area of the box, where two identical objects are placed equidistant from the mouse. Each training session lasts for five minutes. After a one-hour break, one of the identical objects is replaced with a new, distinct object, and the exploration duration for each mouse is recorded. Exploration is defined by the time a mouse spends touching or sniffing an object. The exploration times during both the training and testing phases are documented via video recording, and the data are organized within ANY-MAZE software. The object recognition index was defined as follows: (time spent on the new object)/(time spent on the old object + time spent on the new object) × 100%. The data are calculated by ANY-MAZE software.
The MWM test is used to measure spatial memory and long-term memory. The whole MWM equipment includes a circular water tank (diameter 1.5 m, depth 50 cm) with warm water (22 ± 1 °C) 35 cm deep, a platform (diameter 14 cm, immersed 1 cm in water), a camera, and a computer for data analysis. The MWM test is conducted over five 5 days: 4 days for training and 1 day for testing. The pool is divided into four quadrants, and at least three quadrants are tested at a time. In the training stage, the mouse is placed on the wall of one of the four quadrants and allowed to swim and find the platform hidden underwater within 120 s. If the mouse cannot find the platform, the experimenter will guide it and let it stay on the platform for 10 s. The experiment lasts for 4 days. On the fifth day of the test phase, the platform is removed, and each mouse is placed in a similar starting position and allowed to move freely for 90 s. […]

A further data set has as its system gut microbiota. In words: Gut microbiota analysis in HFD-induced AD mice. The data set is classed as in vivo. The note with it: Met 140 mg/kg.
Text: as §2

For data set [7], the system named is HFD-induced AD mice. In words: Immunofluorescence staining of brain tissue of HFD-induced AD mice. The format is in vivo.
Text: as §2
At the end of animal experiments, three mice in each group were taken for heart perfusion with cold PBS and 4% paraformaldehyde. After that, the brains of mice were fixed with 4% paraformaldehyde for 24 h and gradually dehydrated with 15% and 30% sucrose solutions for 48 h, respectively. The fixed and embedded brain sample was placed in a cryostat and cut into 20 µm thick slices with a cryostat (Thermo Fisher, Waltham, MA, USA), and brain slices in the hippocampus and cortex were collected. Finally, the brain slices were placed in antifreeze (glycerol/ethylene/PBS = 3:3:4) and kept in a refrigerator at −30 °C until immunostaining. The brain slices were fixed on a glass slide and hydrated with PBS for 5 min. Then, blocking buffer was added to the brain slices and incubated at room temperature for 1 h. Brain slices were washed twice with PBS and incubated with anti-NeuN, anti-BrdU, anti-Iba1, anti-GFAP, anti-INOS, anti-APP, or anti-p-Tau at 4 °C for 24 h, respectively. Subsequently, the brain slices were incubated with secondary antibody (goat anti-rabbit IgG H&L (Alexa Fluor® 488) or rabbit anti-mouse IgG (Cy3 conjugate)) at room temperature for 2 h after washing with PBS three times. Finally, a cover glass was used to lightly cover the slices stained with DAPI. […] Biomarker proteins in the cerebral cortex and hippocampus were digitized by Image J software (National Institutes of Health, Bethesda, MD, USA).

On to `O=C(SCCCCCCCCSCCCC(F)(F)F)c1cccc(O)c1O` [compound 4], for which, in the data set on PC12 cells [1], the “percentage of PC12 cells exhibiting neurite growth” value is given as “superior activity”. Further, in the data set on PC12 cells [2], the “toxicity in PC12 cells (MTT)” value was “some level of toxicity”.

Turning to `N#Cc1ccc(COC[C@H]2O[C@@H](n3c(NCc4ccc(Cl)c(Cl)c4)nc4c(N)ncnc43)[C@H](O)[C@@H]2O)cc1` [VER155008, reference compound], in data set [3], the APP protein expression result is listed as “significantly increased”, the Hsc70 protein level result is on record as “significantly decreased”, the LAMP2A protein level result is “significantly increased” and the PKM2 protein expression result was “significantly increased”. In addition, the “effect of inhibitor on the EdU cell proliferation activity of TBG096” value in the data set with PC12 cells [4] is listed as “reverse the activity”.

Take “NGF: Nerve growth factor, the first recognized neurotrophic factor; positive control in PC12 assay”: in data set [5], the BBB penetration result is “cannot penetrate the BBB”.

For `Cl.N` [NH4Cl], the “effect of inhibitor on the EdU cell proliferation activity of TBG096” value in the data set with PC12 cells [4] is listed as “reverse the activity”.

Regarding `CN(C)C(=N)N=C(N)N` [Met, Metformin, reference compound], the “number of arm entries, Y-maze test” value with HFD-induced AD mice [6] (TBG096 0.1, 5, 20 mg/kg, Met 140 mg/kg, 54 days) is reported as “No significant differences”. Further, the “escape latency, MWM training phase” value in the data set on HFD-induced AD mice [6] (fourth day, Met 140 mg/kg and all doses of TBG096) is listed as “markedly reduced”. In addition, the “number of platform crossings, MWM test phase” value in the data set on HFD-induced AD mice [6] (vs HFD-only group) was “increased significantly”. Further, in the data set with gut microbiota (TBG096 20 mg/kg), the “abundance of Firmicutes (decreased by HFD) and Bacteroidota (increased by HFD)” value is “reversed”. Besides, in the data set with gut microbiota (TBG096 5 and 20 mg/kg), the “abundance of Ligilactobacillus” value is “improved”. The “APP and phosphorylation Tau protein in the hippocampus” value in the data set on HFD-induced AD mice [7] (immunofluorescence) is reported as “reduction”. The “number of mature neurons (NeuN) in the cerebral cortex” value in the data set with HFD-induced AD mice [7] (vs HFD-only group) was “increased numbers of mature neurons”.
